Measured values reported in patent US20200010756A1, “SURFACTANT FOR ENHANCED OIL RECOVERY” (Total S.A., priority 2017, published 2020).

CCCCCCCCCCCC(=O)NCCCN(C)C [D, dodecylamidopropyl dimethylamine]
stability at high temperature: not stable
